According to ChEMBL document CHEMBL1201862, “PubChem BioAssay data set” (2004):
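In this assay, cells in 96-well plates receive the compound at five concentrations for 48 hours. Endpoints are linearly interpolated between the surrounding concentrations. GI50 = concentration required for 50% inhibition of growth.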 Active and inactive are the calls of the source. No stated cut-off is given here; in the data, active = GI50 up to about 1.1 µM and inactive = higher.

Legend:
Test in all cases: NCI tumour cell line growth inhibition, 48 h
KM12 = tested on: KM12
OVCAR-5 = tested on: OVCAR-5
MDA-N = tested on: MDA-N
SK-MEL-5 = tested on: SK-MEL-5
HL-60 = tested on: HL-60
K562 = tested on: K562
NCI-H460 = tested on: NCI-H460
SN12C = tested on: SN12C
SNB-75 = tested on: SNB-75
HCT-15 = tested on: HCT-15
EKVX = tested on: EKVX
DU-145 = tested on: DU-145
CCRF-CEM = tested on: CCRF-CEM
Malme-3M = tested on: Malme-3M
SK-MEL-2 = tested on: SK-MEL-2
SF-539 = tested on: SF-539
NCI/ADR-RES = tested on: NCI/ADR-RES
Hs-578T = tested on: Hs-578T
NCI-H522 = tested on: NCI-H522
RXF 393 = tested on: RXF 393

Row | Compound | GI50 (KM12) | GI50 (OVCAR-5) | GI50 (MDA-N) | GI50 (SK-MEL-5) | GI50 (HL-60) | GI50 (K562) | GI50 (NCI-H460) | GI50 (SN12C) | GI50 (SNB-75) | GI50 (HCT-15) [µM] | GI50 (EKVX) | GI50 (DU-145) | GI50 (CCRF-CEM) | GI50 (Malme-3M) | GI50 (SK-MEL-2) | GI50 (SF-539) | GI50 (NCI/ADR-RES) | GI50 (Hs-578T) | GI50 (NCI-H522) | GI50 (RXF 393)
1 | NC(=S)SCCC(=O)O | > 100 µM (inactive) | > 100 µM (inactive) | > 100 µM (inactive) | > 100 µM (inactive) | > 100 µM (inactive) | > 100 µM (inactive) | > 100 µM (inactive) | > 100 µM (inactive) | > 100 µM (inactive) | > 100 | > 100 µM (inactive) | > 100 µM (inactive) | > 100 µM (inactive) | > 100 µM (inactive) | > 100 µM (inactive) | > 100 µM (inactive) | > 100 µM (inactive) | > 100 µM (inactive) | > 100 µM (inactive) | 
2 | COC(=O)N1CC2(CO)C3CC=C(C(=O)Nc4ccccc4Br)C2C1C3Br (centres undefined) | > 50 µM (inactive) | > 50 µM (inactive) | > 50 µM (inactive) | > 50 µM (inactive) | > 50 µM (inactive) | > 50 µM (inactive) | > 50 µM (inactive) |  | > 50 µM (inactive) | > 50 | > 50 µM (inactive) | > 50 µM (inactive) | > 50 µM (inactive) | > 50 µM (inactive) | > 50 µM (inactive) | > 50 µM (inactive) | > 50 µM (inactive) | > 50 µM (inactive) |  | > 50 µM (inactive)
3 | Cc1cc2nc(C#N)c(N3CCN(c4ccc([N+](=O)[O-])cc4)CC3)nc2cc1C | > 100 µM (inactive) | > 100 µM (inactive) | > 79.3 µM (inactive) | > 100 µM (inactive) |  | > 100 µM (inactive) | > 85.9 µM (inactive) | > 92.7 µM (inactive) | 63.5 µM (inactive) | > 100 | > 100 µM (inactive) | > 100 µM (inactive) | > 100 µM (inactive) | > 100 µM (inactive) | > 100 µM (inactive) | 26.1 µM (inactive) | > 79.1 µM (inactive) | 29.1 µM (inactive) | > 54.1 µM (inactive) | > 72.9 µM (inactive)
4 | CCCCCCCCCCCCCCCCCCNC(=S)NC=C1C(=O)c2ccccc2C1=O | 10.7 µM (inactive) | 13.4 µM (inactive) | 16 µM (inactive) | 18.2 µM (inactive) | 3.87 µM (inactive) |  | 12.1 µM (inactive) | 16 µM (inactive) |  | 10.2 | 13 µM (inactive) | 6.12 µM (inactive) | 5.02 µM (inactive) | 14.7 µM (inactive) |  | 18.3 µM (inactive) | 14.2 µM (inactive) | 16.3 µM (inactive) |  | 
5 | S=C(N1CCN(c2ccc(Cl)c(Cl)c2)CC1)N1CCN(c2ccc(Cl)c(Cl)c2)CC1 | 14.1 µM (inactive) | 19.6 µM (inactive) | 11.6 µM (inactive) | 15.1 µM (inactive) |  | 12.2 µM (inactive) |  |  |  | 15.4 | 3.38 µM (inactive) | 12.4 µM (inactive) | 3.42 µM (inactive) | 14.2 µM (inactive) | 19.9 µM (inactive) |  | 16.3 µM (inactive) | 6.52 µM (inactive) | 10.9 µM (inactive) | 14.3 µM (inactive)
6 | c1ccc2c(c1)nc1n2CSCC1 | > 100 µM (inactive) | > 100 µM (inactive) | > 100 µM (inactive) | > 100 µM (inactive) | > 100 µM (inactive) | > 100 µM (inactive) | > 100 µM (inactive) | > 100 µM (inactive) | > 100 µM (inactive) | > 100 | > 100 µM (inactive) | > 100 µM (inactive) | > 100 µM (inactive) |  | > 100 µM (inactive) | > 100 µM (inactive) | > 100 µM (inactive) | > 100 µM (inactive) |  | > 100 µM (inactive)
7 | CN(C)CCn1c(=O)oc2cc(C(=O)CN3CCOCC3)ccc21 | > 100 µM (inactive) | > 100 µM (inactive) | > 100 µM (inactive) | > 100 µM (inactive) | > 100 µM (inactive) | > 100 µM (inactive) | > 100 µM (inactive) | > 100 µM (inactive) | > 100 µM (inactive) | > 100 | > 100 µM (inactive) | > 100 µM (inactive) | > 100 µM (inactive) | > 100 µM (inactive) | > 100 µM (inactive) | > 100 µM (inactive) | > 100 µM (inactive) | > 100 µM (inactive) |  | > 100 µM (inactive)
8 | Cc1ccc(C)n1-n1c(Cc2ccccc2)n[nH]c1=O | > 100 µM (inactive) | > 100 µM (inactive) | > 100 µM (inactive) | > 100 µM (inactive) |  | > 100 µM (inactive) | > 100 µM (inactive) | > 100 µM (inactive) | 22.2 µM (inactive) | > 100 | 61.7 µM (inactive) | > 100 µM (inactive) | > 100 µM (inactive) | > 100 µM (inactive) | > 100 µM (inactive) |  | > 100 µM (inactive) | > 100 µM (inactive) | 49.2 µM (inactive) | > 100 µM (inactive)
9 | Cn1cc(C=C(C#N)C#N)c(=O)n(C)c1=O | > 100 µM (inactive) | > 100 µM (inactive) | > 100 µM (inactive) | > 100 µM (inactive) |  |  | > 100 µM (inactive) | > 100 µM (inactive) | > 100 µM (inactive) | > 100 | > 100 µM (inactive) | > 100 µM (inactive) |  |  | > 100 µM (inactive) | > 100 µM (inactive) | > 100 µM (inactive) | > 100 µM (inactive) | 37.6 µM (inactive) | > 100 µM (inactive)
10 | Cc1ccc(S(=O)(=O)NC(CN)C(=O)O)cc1 (centres undefined) | > 100 µM (inactive) | > 100 µM (inactive) | > 100 µM (inactive) | > 100 µM (inactive) |  |  | > 100 µM (inactive) |  | > 100 µM (inactive) | > 100 | > 100 µM (inactive) | > 100 µM (inactive) |  | > 100 µM (inactive) | > 100 µM (inactive) | > 100 µM (inactive) | > 100 µM (inactive) | > 100 µM (inactive) | > 100 µM (inactive) | > 100 µM (inactive)
11 | O=c1cc(CN2CCCCC2)nc2ccc3c(O)cc(CN4CCCCC4)nc3n12 | > 100 µM (inactive) | > 100 µM (inactive) | > 100 µM (inactive) | > 100 µM (inactive) | > 100 µM (inactive) | > 100 µM (inactive) | > 100 µM (inactive) | > 100 µM (inactive) | > 100 µM (inactive) | > 100 | > 100 µM (inactive) | > 100 µM (inactive) | > 100 µM (inactive) |  | > 100 µM (inactive) | > 100 µM (inactive) | > 100 µM (inactive) | > 100 µM (inactive) |  | > 100 µM (inactive)
12 | O=C1C=C/C(=N/c2cccc3c(/N=C4/C=CC(=O)O4)cccc23)O1 | > 100 µM (inactive) | 54.8 µM (inactive) | 27.3 µM (inactive) | > 100 µM (inactive) |  | 21.2 µM (inactive) | > 100 µM (inactive) | 29.9 µM (inactive) | > 100 µM (inactive) | 37.3 | 16.8 µM (inactive) | > 100 µM (inactive) |  | 22.2 µM (inactive) | > 100 µM (inactive) | 19.1 µM (inactive) | 95.7 µM (inactive) | > 100 µM (inactive) | 18.7 µM (inactive) | 20.7 µM (inactive)
13 | CCOC(=O)/C(=N\Nc1ccc(-n2c(C)nc3ccc(Br)cc3c2=O)cc1)C(C)=O | 59.6 µM (inactive) | > 100 µM (inactive) | 71.1 µM (inactive) | 13.1 µM (inactive) | 5.32 µM (inactive) | 35.2 µM (inactive) | 99.3 µM (inactive) | > 100 µM (inactive) | 30.7 µM (inactive) | 64.4 | 72.1 µM (inactive) | > 100 µM (inactive) | 31.1 µM (inactive) |  | 70 µM (inactive) | 38.8 µM (inactive) | 52 µM (inactive) | 29.1 µM (inactive) |  | 
14 | Clc1cc(Cl)nc(Nc2ccc3c(c2)CCC3)n1 | 21.4 µM (inactive) | 77.8 µM (inactive) | 40.1 µM (inactive) | 23.8 µM (inactive) | 36.7 µM (inactive) | 20.6 µM (inactive) | 30.4 µM (inactive) | 45.4 µM (inactive) |  | 33.7 | 20 µM (inactive) | 61.2 µM (inactive) | 30.3 µM (inactive) | 28.6 µM (inactive) | 45 µM (inactive) | > 100 µM (inactive) | 48 µM (inactive) | 28.4 µM (inactive) | 2.54 µM (inactive) | 
15 | NC(=O)c1cc2ccccc2c(/N=N/c2ccccc2)c1O | 28.6 µM (inactive) | > 100 µM (inactive) | > 100 µM (inactive) | > 100 µM (inactive) |  | 71.9 µM (inactive) |  | > 100 µM (inactive) | > 100 µM (inactive) | > 100 | 39.4 µM (inactive) | > 100 µM (inactive) | > 100 µM (inactive) | > 100 µM (inactive) | > 100 µM (inactive) |  | 76.2 µM (inactive) | 93.3 µM (inactive) | 38.7 µM (inactive) | > 100 µM (inactive)
16 | CC(C)=C[C@@H]1C[C@H](C)c2c(O)cc(C)c3c2C1=C(C)C(=O)C3=O [ELISABATIN A] | 15.6 µM (inactive) | 24.7 µM (inactive) | 16.3 µM (inactive) | 13.6 µM (inactive) | 21.9 µM (inactive) | 17.2 µM (inactive) | 18 µM (inactive) | 15 µM (inactive) | 17.4 µM (inactive) | 13.6 | 14.3 µM (inactive) | 15.3 µM (inactive) | 22.4 µM (inactive) | 16 µM (inactive) |  | 17.9 µM (inactive) | 18.9 µM (inactive) | 19.6 µM (inactive) | 15.3 µM (inactive) | 
